Test: Radiochemical stability in mouse serum (rad-TLC)
Format: in vitro ADME
Details: 37 °C
Protocol: The stability of PET probes [^18F]2 and [^18F]6 was measured in isotonic NaCl solution (0.9% NaCl) and mouse and human serums at 37 °C for up to 120 min by rad-TLC at 0 min, 30 min, 60 min and 120 min post incubation. The results obtained are presented in Fig. 5 and SI-Figs. S10–S15, SI-Table S1. […] The plausible explanation of the instability of [^18F]6 could be attributed to the covalent interaction of [^18F]6’s SO2F group with primary amines of amino acid residues present in the protein rich mouse and human serums. In fact, in an unrelated study, Zhao et al. reported formation of sulfonamide bond between sulfuryl fluoride and primary amine of conserved lysine residues of different kinases. […] Based on 2’s favorable blood–brain barrier permeability, nanomolar binding affinity and PET probe [^18F]2’s excellent stability in both mouse and human serums, further in vivo evaluations were performed only with PET probe [^18F]2.
Stability of [^18F]2 and [^18F]6 was assessed in isotonic NaCl solution and human and mouse serums. To perform this stability assay, 100 µL of [^18F]2 (~ 37.0 MBq) or 100 µL of [^18F]6 (~ 37.0 MBq) as in final formulation was added to 100 µL of human serum or mouse serum in a microcentrifuge tube. The resultant mixture was incubated at 37 °C for 120 min. To assess the radiochemical stability of the probes, a small aliquot (~ 0.5 µL) was taken out from the mixture in triplicate at 0 min, 30 min, 60 min and 120 min during incubation, and analyzed on a rad-TLC using 0.5:9.5 methanol: chloroform as a mobile phase using i-TLC to estimate the stability of [^18F]2 or [^18F]6 at different time points post-incubation. After Stability preparative processes initial i-TLC development was considered as 0 min.

Measured: Percentage of intact probe

O=C(Nc1cnccc1-c1ccc([18F])cc1)c1ccnc(NC(=O)C2CC2)c1 [[^18F]2]
100 ± 0.0%: 0 min | 30 min | 60 min

From publication PMC11237012, “Synthesis and preliminary evaluation of novel PET probes for GSK-3 imaging” (Scientific Reports, 2024)
